The values that follow come from patent publication US20240391931A1 (Bristol-Myers Squibb Company, priority 2021, published 2024).

Chain of HER2YVMA (P04626 with tags, fused parts or gaps INS775YVMA): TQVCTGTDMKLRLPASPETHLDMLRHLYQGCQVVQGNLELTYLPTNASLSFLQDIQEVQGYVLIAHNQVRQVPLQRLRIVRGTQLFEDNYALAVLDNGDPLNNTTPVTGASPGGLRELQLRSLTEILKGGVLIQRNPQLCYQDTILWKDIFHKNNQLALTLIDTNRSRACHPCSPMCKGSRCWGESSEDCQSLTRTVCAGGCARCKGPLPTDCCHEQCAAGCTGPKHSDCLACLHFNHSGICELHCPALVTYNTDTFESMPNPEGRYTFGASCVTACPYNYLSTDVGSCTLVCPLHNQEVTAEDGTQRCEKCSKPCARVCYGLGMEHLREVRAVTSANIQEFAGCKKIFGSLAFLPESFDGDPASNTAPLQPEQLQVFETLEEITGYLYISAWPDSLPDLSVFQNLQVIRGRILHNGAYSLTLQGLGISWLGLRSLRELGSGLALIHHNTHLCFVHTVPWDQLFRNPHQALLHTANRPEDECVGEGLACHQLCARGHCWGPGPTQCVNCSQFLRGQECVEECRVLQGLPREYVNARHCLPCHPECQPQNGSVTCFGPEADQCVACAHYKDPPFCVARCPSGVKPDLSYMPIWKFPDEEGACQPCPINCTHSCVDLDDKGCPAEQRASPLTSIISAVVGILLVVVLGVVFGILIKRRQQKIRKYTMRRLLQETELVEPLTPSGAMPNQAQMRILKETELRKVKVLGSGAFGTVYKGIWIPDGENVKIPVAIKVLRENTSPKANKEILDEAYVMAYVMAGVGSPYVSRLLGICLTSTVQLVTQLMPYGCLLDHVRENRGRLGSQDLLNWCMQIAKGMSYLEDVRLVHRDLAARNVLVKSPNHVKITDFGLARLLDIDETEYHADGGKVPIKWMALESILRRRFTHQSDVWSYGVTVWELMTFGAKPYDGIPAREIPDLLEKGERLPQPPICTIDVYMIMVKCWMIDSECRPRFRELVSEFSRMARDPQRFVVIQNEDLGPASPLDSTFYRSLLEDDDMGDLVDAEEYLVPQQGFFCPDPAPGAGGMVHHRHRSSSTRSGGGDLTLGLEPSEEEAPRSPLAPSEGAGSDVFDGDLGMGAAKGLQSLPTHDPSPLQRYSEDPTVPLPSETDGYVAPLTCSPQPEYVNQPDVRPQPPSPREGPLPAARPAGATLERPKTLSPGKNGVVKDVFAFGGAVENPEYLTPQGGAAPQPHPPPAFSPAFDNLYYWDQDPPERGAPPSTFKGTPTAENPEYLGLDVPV

This test has as its target HER2YVMA (Homo sapiens, UniProt P04626, INS775YVMA). Description: HER2 signaling (pHER2) in Hek293-HER2YVMA cells. Also noted: expressed in transfected cells; host or cells: HEK293 (pool), Ba/F3 (clones), BEAS2B (clones); lentiviral vector pCDH-CMV-MCS-EF1-Neo. Particulars: 1.5 hr compound, 1% FBS, read-out: HEKYVMA pHER2 EC50. The format is cell-based. The method, boiled down:
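Lentivirally transduced HER2YVMA lines (HEK293 pool; BEAS2B clone) treated 1.5 h at 37 °C in 1% FBS medium with compound at 0.0005–1.1 μM. Lysates read by MSD immunoassay for pHER2 (Tyr1248) normalized to total HER2, as % DMSO control; EC50 from variable-slope sigmoidal fit.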
By EC50 is commonly meant the concentration needed to bring the measured effect to its halfway point. Turning to `Cc1ccc(Oc2ccc(Nc3ncnc4sc5c(c34)CCN(C(=O)/C=C/CN3C[C@H]4CC[C@@H](C3)O4)C5)cc2C)cn1` [Compound 66], the 50% effective concentration (EC50) is less than 0.1 µM.
Next, `Cc1ccc(Oc2ccc(Nc3ncnc4sc5c(c34)CCN(C(=O)/C=C/CNC3CCOC3)C5)cc2C)cn1` (stereo not drawn) [Compound 47]: less than 0.1 µM.
For the molecule `Cc1ccc(Oc2ccc(Nc3ncnc4sc5c(c34)CCN(C(=O)/C=C/CN[C@H]3CC[C@H](OC4CC4)CC3)C5)cc2C)cn1` [Compound 68], the EC50 was less than 0.1 µM.
Next, `Cc1ccc(Oc2ccc(Nc3ncnc4sc5c(c34)CCN(C(=O)/C=C/CNC3CCC(C(=O)N(C)C)CC3)C5)cc2C)cn1` (stereo not drawn) [Compound 71]: less than 0.1 µM.
For the molecule `Cc1ccc(Oc2ccc(Nc3ncnc4sc5c(c34)CCN(C(=O)/C=C/CN(C)C(C)(C)C)C5)cc2C)cn1` [Compound 33], the EC50 was less than 0.1 µM.
Next, `Cc1ccc(Oc2ccc(Nc3ncnc4sc5c(c34)CCN(C(=O)/C=C/CN3CCCC3C(N)=O)C5)cc2C)cn1` (stereo not drawn) [Compound 41]: less than 0.1 µM; `Cc1ccc(Oc2ccc(Nc3ncnc4sc5c(c34)CCN(C(=O)/C=C/CN[C@@H](C)CO)C5)cc2C)cn1` [Compound 75]: less than 0.1 µM.
Next, `C=CC(=O)N1CCc2[nH]c3ncnc(Nc4ccc(Oc5ccc6ncnn6c5)c(C)c4)c3c2C1` [Compound 102, 1-(4-((4-([1,2,4]triazolo[1,5-a]pyridin-6-yloxy)-3-methylphenyl)amino)-5,7,8,9-tetrahydro-6H-pyrido[3′,4′:4,5]pyrrolo[2,3-d]pyrimidin-6-yl)prop-2-en-1-one]: 0.1 to 0.35 µM; `CN(C)C/C=C/C(=O)N1CCc2c(sc3ncnc(Nc4ccc(Oc5ccc6ncnn6c5)c(Cl)c4)c23)C1` [Compound 5, (E)-1-(4-((4-([1,2,4]triazolo[1,5-a]pyridin-6-yloxy)-3-chlorophenyl)amino)-5,8-dihydropyrido[4′,3′:4,5]thieno[2,3-d]pyrimidin-7(6H)-yl)-4-(dimethylamino)but-2-en-1-one]: less than 0.1 µM.
Take `Cc1ccc(Oc2ccc(Nc3ncnc4sc5c(c34)CCN(C(=O)/C=C/CN3CC(O)CO3)C5)cc2C)cn1` (stereo not drawn) [Compound 43]: the EC50 is 0.35 to 1 µM.
With `Cc1ccc(Oc2ccc(Nc3ncnc4sc5c(c34)CCN(C(=O)/C=C/CNCc3cc(C)n[nH]3)C5)cc2C)cn1` [Compound 49], the 50% effective concentration (EC50) was less than 0.1 µM.
As to `Cc1ccc(Oc2ccc(Nc3ncnc4sc5c(c34)CCN(C(=O)/C=C/CNC3CCC3)C5)cc2C)cn1` [Compound 54], the EC50 is less than 0.1 µM.
With `Cc1cc(Nc2ncnc3sc4c(c23)CCN(C(=O)/C=C/CN2CC3CCC(C3)C2)C4)ccc1Oc1ccc2ncnn2c1` [Compound 20], the EC50 was less than 0.1 µM.
In the case of `Cc1ccc(Oc2ccc(Nc3ncnc4sc5c(c34)CCN(C(=O)/C=C/CN3CCCOCC3)C5)cc2C)cn1` [Compound 42], the EC50 is less than 0.1 µM.
Next, `Cc1cc(Nc2ncnc3sc4c(c23)CCN(C(=O)/C=C/CN(C)C(C)(C)C)C4)ccc1Oc1ccc2ncnn2c1` [Compound 80]: less than 0.1 µM.
Next, `Cc1ccc(Oc2ccc(Nc3ncnc4[nH]c5c(c34)CN(C(=O)/C=C/CN(C)C)CC5)cc2C)cn1` [Compound 97, (E)-4-(dimethylamino)-1-(4-((3-methyl-4-((6-methylpyridin-3-yl)oxy)phenyl)amino)-5,7,8,9-tetrahydro-6H-pyrido[3′,4′:4,5]pyrrolo[2,3-d]pyrimidin-6-yl)but-2-en-1-one]: 0.1 to 0.35 µM.
Next, `C=C(CN1CCc2c(sc3ncnc(Nc4ccc(Oc5ccc(C)nc5)c(C)c4)c23)C1)C(=O)OCC` [Compound 86, Ethyl 2-((4-((3-methyl-4-((6-methylpyridin-3-yl)oxy)phenyl)amino)-5,8-dihydropyrido[4′,3′:4,5]thieno[2,3-d]pyrimidin-7(6H)-yl)methyl)acrylate]: less than 0.1 µM; `Cc1ccc(Oc2ccc(Nc3ncnc4sc5c(c34)CCN(C(=O)/C=C/CNCC3CN(C)CCO3)C5)cc2C)cn1` (stereo not drawn) [Compound 48]: less than 0.1 µM; `Cc1ccc(Oc2ccc(Nc3ncnc4sc5c(c34)C(C)CN(C(=O)C=CCN(C)C)C5)cc2C)cn1` (single isomer, unassigned) [Compound 106]: less than 0.1 µM.
As to `Cc1ccc(Oc2ccc(Nc3ncnc4sc5c(c34)CCCN(C(=O)/C=C/CN(C)C)C5)cc2C)cn1` [Compound 101, (E)-4-(Dimethylamino)-1-(4-((3-methyl-4-((6-methylpyridin-3-yl)oxy)phenyl)amino)-6,7-dihydro-5H-pyrimido[5′,4′:4,5]thieno[2,3-c]azepin-8(9H)-yl)but-2-en-1-one], the half-maximal effective concentration (EC50) is less than 0.1 µM.
Turning to `Cc1ccc(Oc2ccc(Nc3ncnc4sc5c(c34)CCN(C(=O)/C=C/CN(C)C)CC5)cc2C)cn1` [Compound 100, (E)-4-(dimethylamino)-1-(4-((3-methyl-4-((6-methylpyridin-3-yl)oxy)phenyl)amino)-8,9-dihydro-5H-pyrimido[5′,4′:4,5]thieno[2,3-d]azepin-7(6H)-yl)but-2-en-1-one], the EC50 is less than 0.1 µM.
Next, `CC(=O)N1CCN(C/C=C/C(=O)N2CCc3c(sc4ncnc(Nc5ccc(Oc6ccc(C)nc6)c(C)c5)c34)C2)CC1` [Compound 51]: 0.1 to 0.35 µM; `O=C(/C=C/CN1CC2CC(C2)C1)N1CCc2c(sc3ncnc(Nc4ccc(Oc5ccc6ncnn6c5)c(Cl)c4)c23)C1` [Compound 85]: less than 0.1 µM.
Next, `Cc1cc(Nc2ncnc3sc4c(c23)CCN(C(=O)/C=C/CN2CC3CC2CO3)C4)ccc1Oc1ccc2ncnn2c1` (stereo not drawn) [Compound 77]: 0.1 to 0.35 µM.
Turning to `Cc1ccc(Oc2ccc(Nc3ncnc4sc5c(c34)C(C)CN(C(=O)C=CCN(C)C)C5)cc2C)cn1` (single isomer, unassigned) [Compound 105], the EC50 is less than 0.1 µM.
`Cc1ccc(Oc2ccc(Nc3ncnc4sc5c(c34)CCN(C(=O)/C=C/CN3CC4CC3CO4)C5)cc2C)cn1` (stereo not drawn) [Compound 26]: the EC50 was less than 0.1 µM.
Next, `COCCN1CCN(C/C=C/C(=O)N2CCc3c(sc4ncnc(Nc5ccc(Oc6ccc(C)nc6)c(C)c5)c34)C2)CC1` [Compound 59]: less than 0.1 µM; `Cc1ccc(Oc2ccc(Nc3ncnc4sc5c(c34)CCN(C(=O)/C=C/CN(CCO)CCO)C5)cc2C)cn1` [Compound 37]: 0.1 to 0.35 µM.
Next, `Cc1cc(Nc2ncnc3sc4c(c23)CN(C(=O)/C=C/CN(C)C)CC4)ccc1Oc1ccc2ncnn2c1` [Compound 103, (E)-1-(4-((4-([1,2,4]triazolo[1,5-a]pyridin-6-yloxy)-3-methylphenyl)amino)-7,8-dihydropyrido[3′,4′:4,5]thieno[2,3-d]pyrimidin-6(5H)-yl)-4-(dimethylamino)but-2-en-1-one]: less than 0.1 µM; `CN(C/C=C/C(=O)N1CCc2c(sc3ncnc(Nc4ccc(Oc5ccc6ncnn6c5)c(Cl)c4)c23)C1)C(C)(C)C` [Compound 91]: less than 0.1 µM.
